The source of these data is article PMC9323733, “Efficacy of Vafidemstat in Experimental Autoimmune Encephalomyelitis Highlights the KDM1A/RCOR1/HDAC Epigenetic Axis in Multiple Sclerosis” (Pharmaceutics, 2022).

One experiment has as its system spinal cord of EAE mice. The experiment in a line: Microarray, spinal cord of EAE mice, effector phase (E), 24 h after treatment; ORY-2001 0.5 mg/kg, FTY720 1.0 mg/kg. Format: in vivo, mouse. As for the experimental part: We evaluated differences in gene expression induced by the treatment using real-time PCR and by microarray hybridization analysis. First, total RNA was isolated from brain and spinal cord segments from EAE mice using Qiazol™ and the RNeasy MiniKit™ extraction kit (Qiagen). Evaluation of RNA quality was performed with the Agilent 2100 bioanalyzer and NanoDrop™ ND-1000 (Thermo Scientific, Dartford, Kent, UK). After DNAse I treatment, RNA (1 µg/sample) was reverse transcribed using RevertAid First strand cDNA Synthesis kit (Fermentas) and random hexamer primers. For evaluating the expression of the inflammatory markers TNFα, IL-1β, IP10, IL-4, and CCL5, real time PCR was performed by using iQ SYBR Green Supermix (Bio-Rad, Feldkirchen, Germany) according to manufacturer’s instructions in a BIORAD CFX96 thermal cycler. Primer sequences and PCR conditions are indicated in Supplementary Materials Table S3. Microarray studies were performed by using DNA microarray oligo probes designed with Tethys, Oryzon’s proprietary software which is based on the in silico thermodynamic simulation of hybridization. Agilent probes were added for genes which yielded no probes, complying with Tethys criteria. Control probes were used to assess detection limits and range, to verify spatial homogeneity, and to determine experimental within-array variation. Microarray slides were synthesized by Agilent. Total RNA (0.5 µg) amplification and labeling with Cy3 or Cy5 was carried out using a modified Eberwine mRNA amplification procedure employing the MessageAmp™ II aRNA Amplification kit from Ambion (ThermoFisher Scientific, Oxford, UK). […]
For the gene expression studies, data from microarray assays were normalized by modified nonlinear Q-splines normalization method and Log2(Sample/Vehicle) values calculated without background correction (which permits robust selection of differentially expressed genes yet may lead to sub-estimation of the magnitude of change for genes expressed near the detection limit). Differential expression was assessed with the proprietary Polyphemus software using robust statistics on the average technical replicates (3 replicates/gene oligo datapoint) after removing eventual outlier points (caused by dust or array imperfections). […] The p values were calculated after outlier elimination based on the absolute value of the regularized t-statistics, which uses a Bayesian framework to derive the algorithm, using internal replicated controls to assess the minimum technical variability of the process. Correlation between gene expression changes induced by different treatments was analysed by calculating the Pearson correlation coefficient r using the Log2(Treatment/Veh) values for all genes expressed above background level (n). […]

Experiment [1] has as its system C57BL/6 mice with chronic EAE. In words: Chronic EAE induced by MOG35–55, clinical score. As to conditions: for mean clinical score: EAE effector phase, p.o. 5 days from day 12, FTY720 1.0 mg/kg. In kind it is in vivo, mouse. Here is the method:
Mice also received i.p. injections of 200 ng of pertussis toxin on days 0 and 2 [32]. Immunized mice were randomly distributed in different groups. […] MPTP is a prodrug which is converted to the neurotoxin 1-methyl-4-phenylpyridinium (MPP+) by MAO-B in vivo.
Compounds were administered once daily for five consecutive days in two cycles, from day 12 to 16 and from day 19 to 23 post-immunization. […] HPβCD was included to facilitate dissolution. Mice were scored daily for signs of EAE according to the following clinical scoring system: 0, no clinical signs; 0.5, partial loss of tail tonicity; 1, complete loss of tail tonicity; 2, flaccid tail and abnormal gait; 3, complete hind leg paralysis; 4, hind leg paralysis with hind body paresis; 5, hind and foreleg paralysis; and 6, death. Intermediate phenotypes were scored as a half integer. Animals were sacrificed when they kept a score of 5 more than 24 h. Investigators which administered the compounds and scored the animals were blinded to the treatments.

Where [2] appears, read: EAE experiment 2, 0.5 or 1 mg/kg ORY-2001.

Structures are written as SMILES.

In the case of `Nc1nnc(CN[C@@H]2C[C@H]2c2ccc(OCc3ccccc3)cc2)o1` [ORY-2001], in the experiment on spinal cord of EAE mice, the “expression of Aif1, Bst2, Rgs4 and Mtap9” value was “downregulated Aif1”; the “expression of Ogn” value was “preserved the expression of Ogn”; the “expression of Ptpn11, Kif1b and Pik3r1” value is listed as “prevented the induction of Ptpn11”. Moreover, the mean clinical score result in experiment [1] (ORY-2001 0.5 mg/kg) is on record as “reduced the mean clinical score”. Further, in experiment [1] (EAE experiment 1 (severe), p.o. ORY-2001 1 mg/kg), the “animals with mild clinical signs (clinical score ≤ 2)” value amounted to 60%. For the same compound, the “effect on disease severity” value in experiment [1] (EAE experiment 1 (severe), p.o. ORY-2001 1 mg/kg, ORY-LSD1 180 µg/kg) was “significantly reduced disease severity”. Besides, the “animals with severe manifestations/signs of the disease” value in experiment [1] (EAE experiment 1 (severe), p.o. ORY-2001 1 mg/kg, ORY-LSD1 180 µg/kg (maximum clinical score ≥ 4.0)) amounted to 10%. Besides, in experiment [1] (EAE experiment 1 (severe), p.o. ORY-2001 1 mg/kg, ORY-LSD1 180 µg/kg, days 12-16 and 19-23), the “mean maximum clinical score” value is recorded as 1.8. Moreover, in experiment [1] (EAE experiment 2), the “mice with no or only mild clinical signs at the end of the study” value is recorded as 70–80%. Moreover, the “effect on clinical course / disease severity” value in experiment [1] (EAE experiment 2 (mild), p.o. ORY-2001 0.05, 0.5, 1 mg/kg, ORY-LSD1 90, 180 µg/kg, rasagiline 3 mg/kg) was “significantly reduced disease severity”. Also, in experiment [1] (setting [2]), the “mice with mild clinical signs” value amounted to 50% and the “mice with no clinical signs” value came to 10%. Also, the “duration of protection after short term treatment” value in experiment [1] (EAE experiment 2, 40 days after disease onset) is on record as “long-lasting protective effect”. In addition, the “animals with severe signs (maximum clinical score 3.5–6)” value in experiment [1] (EAE experiment 2, highest dose tested) is reported as “none”. Further, in experiment [1] (EAE experiment 2, lowest dose 0.05 mg/kg), the relapse result is “suffered a relapse during the last week of follow-up”. Further, the “clinical signs at the peak of the disease” value in experiment [1] (EAE sub-chronic phase, to day 26, p.o. ORY-2001 0.5 mg/kg, ORY-LSD1 180 µg/kg) was “reduced the clinical signs”. The “severity of symptoms in treated mice” value in experiment [1] (EAE sub-chronic phase, ORY-2001 0.5 mg/kg) is “displayed only mild symptoms”.
For `CCCCCCCCc1ccc(CCC(N)(CO)CO)cc1` [FTY720, Fingolimod, reference compound], the “expression of Ogn” value in the experiment on spinal cord of EAE mice was “downregulated by FTY720”. In addition, the mean clinical score entry in experiment [1] (ORY-2001 0.5 mg/kg) is given as “reduced the mean clinical score”.
